The values below come from patent US5840688A, “Eating suppressant peptides” (Research Corporation Technologies, Inc., priority 1995, dated 1998).

No end group written: not given here.

The subject of one test is animal. Particulars: in vivo; cited from earlier work.
The test system of test [1] is male Sprague Dawley rats. The test can be described thus: Feeding study: food intake after infusion into the third ventricle of 24 h fasted rats. In kind it is in vivo, rat. Here is the method:
Animals used in vivo food intake studies were male Sprague Dawley rats weighing between 280 and 320 grams. The rats were housed in a room illuminated from 06:00 to 18:00 hours (twelve hour light-dark cycle) with a temperature maintained at 21 ±1° C. Both tap water and powdered laboratory chow (Laboratory chow #5001, Purina Mills, Inc.) were provided ad libitum to the rats.
Rats used in the study were surgically equipped with an infusion cannula in the third ventricle. Under sodium pentobarbital anesthesia (50 mg/kg ip), each rat was fixed in a stereotaxic apparatus, its skull was exposed, and two small screws were threaded into the skull to anchor the cannula. A three millimeter diameter hole was drilled in the skull on the midline six millimeters anterior to ear bar zero. […]
In the feeding study, food was removed twenty four hours before the experiment, but free access to water was allowed. […] After twenty four hours of fasting, each rat was re-fed at 13:00 hour, and powdered food consumption was measured at thirty minutes after the resumption of feeding. […]
Data from the feeding study were evaluated using one-way analysis of variance, and multiple comparisons were carried out using the method of least significant difference. […]

The subject of test [2] is male Sprague Dawley rats. The following applies: cited from earlier work.
The conditions of test [3]: apo A-IV appearing in mesenteric lymph after a lipid meal; cited from earlier work.

As for `CSCC[C@H](NC(=O)[C@H](CC(C)C)NC(=O)[C@H](Cc1cnc[nH]1)NC(=O)CNC(=O)[C@@H](NC(=O)[C@H](C)NC(=O)[C@H](Cc1c[nH]c2ccccc12)NC(=O)[C@H](CCC(N)=O)NC(=O)[C@H](CC(N)=O)NC(=O)CNC(=O)[C@H](CC(C)C)NC(=O)[C@H](CCCN=C(N)N)NC(=O)[C@H](CCC(N)=O)NC(=O)[C@@H]1CCC(=O)N1)C(C)C)C(N)=O` [bombesin], the “food intake in animal studies” value in the test on animal was “decrease food intake”. As for “EVTSDQVANVMWDYFTQL SNNAKEAVEQLQ (EVTSDQVANVMWDYFTQLSNNAKEAVEQLQ) [SEQ ID NO:1, 30-mer, first thirty amino acids of the mature rat apo A-IV]”, the “inhibition of food intake” value with male Sprague Dawley rats [1] (synthetic peptide infused into third ventricle, doses 0.125-1.0 μg per rat, 24 h fasted, food consumption at thirty minutes after re-feeding) is on record as “inhibit food intake in a dose-dependent manner”. Regarding Glucagon, the “food intake in animal studies” value in the test with animal was “decrease food intake”.

Consider anorectin, for which, in the test with animal, the “food intake in animal studies” value was “decrease food intake”.

Turning to “calcitonin (CGNLSTCMLGTYTQDFNKFHTFPQTAIGVGAP; ends and bridges not checked; cysteine pairing not given here; UniProt P01258 85-116, looked up) [peptide proposed as affecting eating behavior]”, the “food intake in animal studies” value in the test on animal is reported as “decrease food intake”.

On to “corticotropin releasing hormone (SEEPPISLDLTFHLLREVLEMARAEQLAQQAHSNRKLMEII; ends and bridges not checked; UniProt P06850 154-194, looked up) [peptide proposed as affecting eating behavior]”, for which the “food intake in animal studies” value in the test on animal is “decrease food intake”.

cyclo-HisPro: the “food intake in animal studies” value in the test with animal was “decrease food intake”.

For the molecule enterostatin, in the test on animal, the “food intake in animal studies” value is recorded as “decrease food intake”.

B1: cholecystokinin (peptide, UniProt P06307 21-115, looked up)
Cholecystokinin: QPVPPADPAGSGLQRAEEAPRRQLRVSQRTDGESRAHLGALLARYIQQARKAPSGRMSIVKNLQNLDPSHRISDRDYMGWMDFGRRSAEEYEYPS
modifications: Cholecystokinin
notes: peptide proposed as affecting eating behavior
Consider B1, for which the “food intake in animal studies” value in the test on animal was “decrease food intake”.

B2: apo A-IV: 46,000-Da polypeptide associated with lipoproteins; species of the cited test protein not printed (protein, UniProt P06727 21-396, looked up)
Apolipoprotein A-IV: EVSADQVATVMWDYFSQLSNNAKEAVEHLQKSELTQQLNALFQDKLGEVNTYAGDLQKKLVPFATELHERLAKDSEKLKEEIGKELEELRARLLPHANEVSQKIGDNLRELQQRLEPYADQLRTQVSTQAEQLRRQLTPYAQRMERVLRENADSLQASLRPHADELKAKIDQNVEELKGRLTPYADEFKVKIDQTVEELRRSLAPYAQDTQEKLNHQLEGLTFQMKKNAEELKARISASAEELRQRLAPLAEDVRGNLRGNTEGLQKSLAELGGHLDQQVEEFRRRVEPYGENFNKALVQQMEQLRQKLGPHAGDVEGHLSFLEKDLRDKVNSFFSTFKEKESQDKTLSLPELEQQQEQQQEQQQEQVQMLAPLES
Take B2: the “food intake after central administration” value in the test on male Sprague Dawley rats [2] (administered centrally) is listed as “significantly suppressed in a dose-dependent manner”. In the test on male Sprague Dawley rats [2] (central vs peripheral administration), the “potency administered centrally versus peripherally” value was “more than 50 fold”. Besides, in test [3], the food intake entry is given as “suppresses food intake”.

B3: human apo A-IV: entire human apolipoprotein A-IV molecule obtained from human serum, purified by preparative polyacrylamide gel electrophoresis (protein, UniProt P06727 21-396, looked up)
Apolipoprotein A-IV: EVSADQVATVMWDYFSQLSNNAKEAVEHLQKSELTQQLNALFQDKLGEVNTYAGDLQKKLVPFATELHERLAKDSEKLKEEIGKELEELRARLLPHANEVSQKIGDNLRELQQRLEPYADQLRTQVSTQAEQLRRQLTPYAQRMERVLRENADSLQASLRPHADELKAKIDQNVEELKGRLTPYADEFKVKIDQTVEELRRSLAPYAQDTQEKLNHQLEGLTFQMKKNAEELKARISASAEELRQRLAPLAEDVRGNLRGNTEGLQKSLAELGGHLDQQVEEFRRRVEPYGENFNKALVQQMEQLRQKLGPHAGDVEGHLSFLEKDLRDKVNSFFSTFKEKESQDKTLSLPELEQQQEQQQEQQQEQVQMLAPLES
On to B3, for which, in the test on male Sprague Dawley rats [1] (third ventricle infusion, 1.5 and 3 μg per rat), the “suppression of food intake” value was “effective in suppressing food intake in rats in a dose dependent manner”.
